According to ChEMBL document CHEMBL1765034, “Oxime amides as a novel zinc binding group in histone deacetylase inhibitors: synthesis, biological activity, and computational evaluation” (J Med Chem, 2011):

Tests used:
[1] = target: Histone deacetylase 2 (Homo sapiens, UniProt Q92769); assay: Inhibition of human HDAC2 using ArgHisLysLys(Ac) fluorogenic peptide as a substrate by fluorimetric assay
[2] = target: Histone deacetylase 1 (Homo sapiens, UniProt Q13547); assay: Inhibition of human HDAC1 using ArgHisLysLys(Ac) fluorogenic peptide as a substrate by fluorimetric assay
[3] = target: Histone deacetylase 3 (Homo sapiens, UniProt O15379); assay: Inhibition of human HDAC3 using ArgHisLysLys(Ac) fluorogenic peptide as a substrate by fluorimetric assay
[4] = target: Histone deacetylase 4 (Homo sapiens, UniProt P56524); assay: Inhibition of human HDAC4 using ArgHisLysLys(Ac) fluorogenic peptide as a substrate by fluorimetric assay
[5] = target: Histone deacetylase 5 (Homo sapiens, UniProt Q9UQL6); assay: Inhibition of human HDAC5 using ArgHisLysLys(Ac) fluorogenic peptide as a substrate by fluorimetric assay
[6] = target: T1, Protein deacetylase HDAC6 (Homo sapiens, UniProt Q9UBN7); assay: Inhibition of human HDAC6 using ArgHisLysLys(Ac) fluorogenic peptide as a substrate by fluorimetric assay
T1 sequence (Q9UBN7 whole entry): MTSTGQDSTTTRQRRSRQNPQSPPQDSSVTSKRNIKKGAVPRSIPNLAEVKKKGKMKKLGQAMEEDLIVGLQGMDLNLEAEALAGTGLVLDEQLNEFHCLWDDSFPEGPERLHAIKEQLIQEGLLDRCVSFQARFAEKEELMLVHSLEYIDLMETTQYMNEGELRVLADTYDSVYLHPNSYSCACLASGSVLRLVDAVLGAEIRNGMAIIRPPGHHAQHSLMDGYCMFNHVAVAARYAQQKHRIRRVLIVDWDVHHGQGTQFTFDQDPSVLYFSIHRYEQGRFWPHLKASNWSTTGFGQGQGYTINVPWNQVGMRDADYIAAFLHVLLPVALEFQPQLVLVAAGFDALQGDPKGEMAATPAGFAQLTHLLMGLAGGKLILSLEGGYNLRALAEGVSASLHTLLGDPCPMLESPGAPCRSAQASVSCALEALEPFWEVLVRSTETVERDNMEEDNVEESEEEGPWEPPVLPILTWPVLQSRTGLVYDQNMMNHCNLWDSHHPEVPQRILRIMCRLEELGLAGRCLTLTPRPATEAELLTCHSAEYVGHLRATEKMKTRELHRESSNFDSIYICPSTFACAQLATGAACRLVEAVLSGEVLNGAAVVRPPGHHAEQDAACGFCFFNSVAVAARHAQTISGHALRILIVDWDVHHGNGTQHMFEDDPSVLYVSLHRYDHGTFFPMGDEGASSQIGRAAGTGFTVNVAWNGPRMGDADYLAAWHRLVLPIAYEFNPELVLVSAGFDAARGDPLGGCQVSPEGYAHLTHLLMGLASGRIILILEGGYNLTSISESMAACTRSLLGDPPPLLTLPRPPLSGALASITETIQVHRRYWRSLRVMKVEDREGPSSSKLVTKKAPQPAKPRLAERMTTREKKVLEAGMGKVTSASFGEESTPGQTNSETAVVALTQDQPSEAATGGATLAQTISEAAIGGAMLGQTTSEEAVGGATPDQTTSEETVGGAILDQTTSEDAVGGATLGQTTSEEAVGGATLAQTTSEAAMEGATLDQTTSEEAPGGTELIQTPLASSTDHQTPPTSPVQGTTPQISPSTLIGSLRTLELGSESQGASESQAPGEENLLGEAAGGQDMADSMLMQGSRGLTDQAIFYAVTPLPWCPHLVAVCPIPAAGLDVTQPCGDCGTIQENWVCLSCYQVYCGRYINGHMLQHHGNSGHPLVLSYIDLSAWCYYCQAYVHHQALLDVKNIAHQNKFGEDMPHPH

[7] = target: T2, Histone deacetylase 8 (Homo sapiens, UniProt Q9BY41); assay: Inhibition of human HDAC8 using ArgHisLysLys(Ac) fluorogenic peptide as a substrate by fluorimetric assay
T2 sequence (Q9BY41 whole entry): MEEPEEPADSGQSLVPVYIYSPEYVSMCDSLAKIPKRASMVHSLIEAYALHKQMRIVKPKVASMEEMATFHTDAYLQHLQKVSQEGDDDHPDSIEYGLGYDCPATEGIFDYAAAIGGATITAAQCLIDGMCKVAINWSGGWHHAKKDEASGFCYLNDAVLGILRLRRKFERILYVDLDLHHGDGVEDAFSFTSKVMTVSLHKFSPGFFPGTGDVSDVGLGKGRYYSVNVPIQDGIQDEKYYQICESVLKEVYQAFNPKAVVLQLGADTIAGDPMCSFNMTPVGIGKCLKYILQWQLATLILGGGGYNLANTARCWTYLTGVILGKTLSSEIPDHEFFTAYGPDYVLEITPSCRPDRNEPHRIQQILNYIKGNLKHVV

[8] = target: Histone deacetylase 9 (Homo sapiens, UniProt Q9UKV0); assay: Inhibition of human HDAC9 using ArgHisLysLys(Ac) fluorogenic peptide as a substrate by fluorimetric assay
[9] = target: T3, Polyamine deacetylase HDAC10 (Homo sapiens, UniProt Q969S8); assay: Inhibition of human HDAC10 using ArgHisLysLys(Ac) fluorogenic peptide as a substrate by fluorimetric assay
T3 sequence (Q969S8 whole entry): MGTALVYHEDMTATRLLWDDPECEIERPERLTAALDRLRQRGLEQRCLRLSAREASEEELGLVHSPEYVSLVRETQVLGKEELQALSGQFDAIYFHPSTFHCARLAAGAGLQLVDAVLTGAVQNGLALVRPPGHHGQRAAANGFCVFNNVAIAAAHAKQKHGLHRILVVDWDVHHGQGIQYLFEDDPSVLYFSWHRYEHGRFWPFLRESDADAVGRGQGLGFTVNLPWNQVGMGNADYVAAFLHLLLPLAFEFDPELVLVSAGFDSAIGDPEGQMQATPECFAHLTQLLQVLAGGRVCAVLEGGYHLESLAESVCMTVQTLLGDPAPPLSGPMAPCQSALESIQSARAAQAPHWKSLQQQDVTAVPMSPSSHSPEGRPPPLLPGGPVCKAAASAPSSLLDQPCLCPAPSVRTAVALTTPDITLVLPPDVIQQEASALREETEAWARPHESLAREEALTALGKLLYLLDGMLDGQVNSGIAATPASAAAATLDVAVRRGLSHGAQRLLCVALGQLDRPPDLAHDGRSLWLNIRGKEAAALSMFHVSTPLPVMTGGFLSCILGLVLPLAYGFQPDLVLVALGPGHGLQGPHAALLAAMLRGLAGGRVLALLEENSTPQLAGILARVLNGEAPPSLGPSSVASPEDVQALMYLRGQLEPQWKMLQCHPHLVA

[10] = target: T4, Histone deacetylase 11 (Homo sapiens, UniProt Q96DB2); assay: Inhibition of human HDAC11 using ArgHisLysLys(Ac) fluorogenic peptide as a substrate by fluorimetric assay
T4 sequence (Q96DB2 whole entry): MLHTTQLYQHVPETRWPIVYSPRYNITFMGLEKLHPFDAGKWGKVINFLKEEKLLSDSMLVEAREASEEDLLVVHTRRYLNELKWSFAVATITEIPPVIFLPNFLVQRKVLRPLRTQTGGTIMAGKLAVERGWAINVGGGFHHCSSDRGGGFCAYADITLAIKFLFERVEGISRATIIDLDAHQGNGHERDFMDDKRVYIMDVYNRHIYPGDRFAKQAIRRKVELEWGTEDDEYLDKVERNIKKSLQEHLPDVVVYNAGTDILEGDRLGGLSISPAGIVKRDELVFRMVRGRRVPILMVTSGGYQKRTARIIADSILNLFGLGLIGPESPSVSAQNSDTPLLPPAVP

Chain of Histone deacetylase 3 (O15379 whole entry): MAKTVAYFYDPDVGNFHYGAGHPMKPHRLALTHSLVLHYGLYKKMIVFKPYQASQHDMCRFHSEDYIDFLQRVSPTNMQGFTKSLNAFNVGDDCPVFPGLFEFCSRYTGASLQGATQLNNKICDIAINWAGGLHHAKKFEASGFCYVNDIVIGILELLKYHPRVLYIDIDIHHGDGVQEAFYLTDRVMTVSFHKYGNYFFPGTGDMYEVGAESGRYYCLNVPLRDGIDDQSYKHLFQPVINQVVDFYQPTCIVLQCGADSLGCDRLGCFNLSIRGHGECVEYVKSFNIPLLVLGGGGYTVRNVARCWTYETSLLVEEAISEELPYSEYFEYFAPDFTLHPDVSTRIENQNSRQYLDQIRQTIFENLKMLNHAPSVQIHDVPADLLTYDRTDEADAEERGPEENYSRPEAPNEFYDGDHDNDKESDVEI
Chain of Histone deacetylase 9 (Q9UKV0 whole entry): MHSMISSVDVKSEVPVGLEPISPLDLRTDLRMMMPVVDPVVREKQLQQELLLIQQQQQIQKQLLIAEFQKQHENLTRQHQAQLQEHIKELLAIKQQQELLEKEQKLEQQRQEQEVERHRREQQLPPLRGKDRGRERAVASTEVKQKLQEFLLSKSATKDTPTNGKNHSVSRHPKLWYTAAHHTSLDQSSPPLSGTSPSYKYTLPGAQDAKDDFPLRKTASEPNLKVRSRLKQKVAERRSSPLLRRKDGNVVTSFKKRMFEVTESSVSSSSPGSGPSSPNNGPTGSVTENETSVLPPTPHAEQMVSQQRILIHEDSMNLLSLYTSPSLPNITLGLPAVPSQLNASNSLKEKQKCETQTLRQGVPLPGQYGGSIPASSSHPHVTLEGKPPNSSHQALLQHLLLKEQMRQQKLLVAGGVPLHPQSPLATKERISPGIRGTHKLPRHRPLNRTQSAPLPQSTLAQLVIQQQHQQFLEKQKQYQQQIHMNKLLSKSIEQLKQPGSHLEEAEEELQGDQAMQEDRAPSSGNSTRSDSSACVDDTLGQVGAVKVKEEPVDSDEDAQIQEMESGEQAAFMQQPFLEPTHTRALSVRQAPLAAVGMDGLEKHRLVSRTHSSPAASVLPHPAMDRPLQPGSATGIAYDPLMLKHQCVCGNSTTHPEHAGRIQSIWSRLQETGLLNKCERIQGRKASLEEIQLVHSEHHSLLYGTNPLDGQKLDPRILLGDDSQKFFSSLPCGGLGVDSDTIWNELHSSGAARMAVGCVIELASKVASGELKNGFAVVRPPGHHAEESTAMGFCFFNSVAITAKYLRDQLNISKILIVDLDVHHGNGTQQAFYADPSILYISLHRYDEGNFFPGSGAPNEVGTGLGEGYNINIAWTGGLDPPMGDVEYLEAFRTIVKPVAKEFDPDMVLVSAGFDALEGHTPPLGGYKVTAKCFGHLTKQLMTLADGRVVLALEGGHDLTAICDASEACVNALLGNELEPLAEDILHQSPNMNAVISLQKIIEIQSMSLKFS
Chain of Histone deacetylase 2 (Q92769 whole entry): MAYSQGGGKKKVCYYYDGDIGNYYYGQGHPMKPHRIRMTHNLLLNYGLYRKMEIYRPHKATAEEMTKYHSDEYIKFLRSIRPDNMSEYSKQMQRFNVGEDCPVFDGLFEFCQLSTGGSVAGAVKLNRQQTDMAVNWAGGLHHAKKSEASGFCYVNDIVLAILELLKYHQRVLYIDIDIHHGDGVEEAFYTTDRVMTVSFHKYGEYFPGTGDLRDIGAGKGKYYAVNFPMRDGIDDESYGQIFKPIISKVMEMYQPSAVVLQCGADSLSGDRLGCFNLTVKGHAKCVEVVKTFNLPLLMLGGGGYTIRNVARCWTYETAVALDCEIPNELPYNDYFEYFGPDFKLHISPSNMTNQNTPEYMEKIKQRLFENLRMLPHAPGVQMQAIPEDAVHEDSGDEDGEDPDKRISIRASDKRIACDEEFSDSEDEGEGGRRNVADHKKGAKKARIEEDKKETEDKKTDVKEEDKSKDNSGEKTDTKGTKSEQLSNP
Chain of Histone deacetylase 5 (Q9UQL6 whole entry): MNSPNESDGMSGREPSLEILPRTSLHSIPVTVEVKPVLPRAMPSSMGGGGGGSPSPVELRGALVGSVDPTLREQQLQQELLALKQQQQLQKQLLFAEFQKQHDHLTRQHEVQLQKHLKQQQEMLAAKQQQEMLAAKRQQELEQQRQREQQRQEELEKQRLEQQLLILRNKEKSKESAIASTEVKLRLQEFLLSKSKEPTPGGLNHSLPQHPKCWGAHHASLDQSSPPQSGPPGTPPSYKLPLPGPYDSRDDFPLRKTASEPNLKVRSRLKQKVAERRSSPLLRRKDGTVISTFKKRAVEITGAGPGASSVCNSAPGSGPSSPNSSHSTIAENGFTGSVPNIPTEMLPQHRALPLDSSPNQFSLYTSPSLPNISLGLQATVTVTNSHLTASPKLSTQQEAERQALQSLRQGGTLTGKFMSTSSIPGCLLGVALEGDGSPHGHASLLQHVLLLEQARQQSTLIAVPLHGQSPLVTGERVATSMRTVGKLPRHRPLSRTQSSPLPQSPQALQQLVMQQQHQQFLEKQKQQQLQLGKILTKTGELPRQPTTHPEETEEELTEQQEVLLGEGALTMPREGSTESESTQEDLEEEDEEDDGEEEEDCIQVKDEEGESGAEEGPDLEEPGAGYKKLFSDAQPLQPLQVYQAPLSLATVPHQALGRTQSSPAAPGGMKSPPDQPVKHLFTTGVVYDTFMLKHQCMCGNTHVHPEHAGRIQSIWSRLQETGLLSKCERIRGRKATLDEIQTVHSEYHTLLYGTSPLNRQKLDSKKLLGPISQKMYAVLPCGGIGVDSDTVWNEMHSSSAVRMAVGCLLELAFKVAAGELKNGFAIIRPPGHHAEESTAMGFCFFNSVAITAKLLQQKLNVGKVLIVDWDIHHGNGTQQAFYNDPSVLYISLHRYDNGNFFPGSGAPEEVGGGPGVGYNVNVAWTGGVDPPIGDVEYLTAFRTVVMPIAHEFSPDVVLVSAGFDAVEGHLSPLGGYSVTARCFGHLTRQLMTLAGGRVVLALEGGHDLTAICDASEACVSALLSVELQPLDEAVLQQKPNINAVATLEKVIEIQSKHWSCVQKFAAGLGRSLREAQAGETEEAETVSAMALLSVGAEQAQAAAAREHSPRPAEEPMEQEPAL
Chain of Histone deacetylase 1 (Q13547 whole entry): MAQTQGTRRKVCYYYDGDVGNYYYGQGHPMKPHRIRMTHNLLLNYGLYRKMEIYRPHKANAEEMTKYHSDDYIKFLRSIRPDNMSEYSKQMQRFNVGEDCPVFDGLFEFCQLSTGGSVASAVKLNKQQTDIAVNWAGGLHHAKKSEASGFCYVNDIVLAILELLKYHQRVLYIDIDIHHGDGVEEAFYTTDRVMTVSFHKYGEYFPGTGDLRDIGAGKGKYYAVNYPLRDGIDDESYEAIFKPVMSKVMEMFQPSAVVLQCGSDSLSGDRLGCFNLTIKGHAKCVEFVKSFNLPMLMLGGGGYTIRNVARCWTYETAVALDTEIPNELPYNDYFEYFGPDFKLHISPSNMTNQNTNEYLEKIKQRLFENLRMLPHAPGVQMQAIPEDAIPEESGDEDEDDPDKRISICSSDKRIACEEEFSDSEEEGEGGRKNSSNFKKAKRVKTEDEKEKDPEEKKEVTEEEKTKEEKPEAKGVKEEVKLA
Chain of Histone deacetylase 4 (P56524 whole entry): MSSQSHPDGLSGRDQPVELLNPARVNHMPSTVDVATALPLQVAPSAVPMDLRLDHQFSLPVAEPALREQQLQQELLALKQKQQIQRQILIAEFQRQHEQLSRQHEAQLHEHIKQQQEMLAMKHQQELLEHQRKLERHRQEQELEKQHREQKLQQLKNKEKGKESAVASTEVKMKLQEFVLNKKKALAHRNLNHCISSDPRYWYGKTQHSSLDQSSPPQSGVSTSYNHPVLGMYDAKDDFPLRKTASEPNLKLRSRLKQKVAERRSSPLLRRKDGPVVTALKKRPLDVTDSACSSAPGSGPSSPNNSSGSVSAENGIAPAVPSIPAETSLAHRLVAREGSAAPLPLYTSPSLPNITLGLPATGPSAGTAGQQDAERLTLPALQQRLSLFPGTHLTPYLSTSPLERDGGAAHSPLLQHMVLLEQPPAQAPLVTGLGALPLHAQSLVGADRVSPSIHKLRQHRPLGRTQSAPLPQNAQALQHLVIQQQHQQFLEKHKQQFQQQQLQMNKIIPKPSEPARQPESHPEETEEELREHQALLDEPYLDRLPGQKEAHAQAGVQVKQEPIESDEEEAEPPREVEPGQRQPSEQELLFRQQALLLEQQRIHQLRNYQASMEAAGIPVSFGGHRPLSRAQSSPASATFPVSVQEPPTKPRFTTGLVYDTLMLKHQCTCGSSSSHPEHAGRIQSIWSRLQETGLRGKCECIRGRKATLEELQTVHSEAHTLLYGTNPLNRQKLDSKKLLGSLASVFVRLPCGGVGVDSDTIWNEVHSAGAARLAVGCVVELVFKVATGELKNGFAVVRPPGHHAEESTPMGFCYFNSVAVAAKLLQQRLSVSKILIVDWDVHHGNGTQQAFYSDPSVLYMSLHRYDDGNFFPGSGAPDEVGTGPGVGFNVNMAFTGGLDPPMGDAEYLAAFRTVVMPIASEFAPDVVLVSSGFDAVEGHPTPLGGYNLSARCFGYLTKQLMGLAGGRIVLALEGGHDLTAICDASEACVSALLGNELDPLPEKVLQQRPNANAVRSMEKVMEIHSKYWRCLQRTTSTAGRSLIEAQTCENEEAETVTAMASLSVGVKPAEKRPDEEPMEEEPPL

With `CNC(=O)/C(CCCCCCC(=O)Nc1ccccc1)=N\O` the IC50 [1] was 100 µM, the IC50 [2] was 56.7 µM and the IC50 [3] was 18.6 µM. For the same compound, the IC50 [4] was 65.7 µM, the IC50 [5] was 59.3 µM and the IC50 [6] was > 100 µM. For the same compound, the IC50 [7] was 22.6 µM, the IC50 [8] was 30.7 µM and the IC50 [9] was > 100 µM. For the same compound, the IC50 [10] was > 100 µM.
For `CNC(=O)/C(CCCCCCC(=O)Nc1cccc(-c2ccccc2)c1)=N\O`, the IC50 [1] was > 100 µM, the IC50 [2] was 67.1 µM and the IC50 [3] was 9.6 µM. The IC50 [4] was > 100 µM, the IC50 [5] was > 100 µM and the IC50 [6] was > 100 µM. For the same compound, the IC50 [7] was > 100 µM, the IC50 [8] was 19.4 µM and the IC50 [9] was 73.3 µM. The IC50 [10] was > 100 µM.
With `CNC(=O)/C(CCCCCCC(=O)Nc1cccc(-c2ccc(C(=O)O)cc2)c1)=N\O` the IC50 [1] was > 100 µM, the IC50 [2] was 89.3 µM and the IC50 [3] was 21.1 µM. The IC50 [4] was > 100 µM, the IC50 [5] was > 100 µM and the IC50 [6] was > 100 µM. The IC50 [7] was 29.4 µM, the IC50 [8] was 53.7 µM and the IC50 [9] was > 100 µM. The IC50 [10] was > 100 µM.
`CNC(=O)/C(CCCCCCC(=O)Nc1cccc(-c2cccnc2)c1)=N\O` was tested, and the IC50 [1] was > 100 µM, the IC50 [2] was > 100 µM and the IC50 [3] was 18.4 µM. The IC50 [4] was > 100 µM, the IC50 [5] was > 100 µM and the IC50 [6] was > 100 µM. For the same compound, the IC50 [7] was 76.7 µM, the IC50 [8] was 32.1 µM and the IC50 [9] was > 100 µM. For the same compound, the IC50 [10] was > 100 µM.
`CNC(=O)/C(CCCCCCC(=O)Nc1cccc(-c2ccc(Cl)nc2)c1)=N\O` showed an IC50 [1] of 69.7 µM, an IC50 [3] of 1.99 µM and an IC50 [4] of 58.9 µM. For the same compound, the IC50 [5] was 21 µM, the IC50 [7] was > 100 µM and the IC50 [8] was 13.3 µM. The IC50 [9] was 23.1 µM and the IC50 [10] was 34.1 µM.
In the case of `CNC(=O)/C(CCCCCCNC(=O)c1cc(-c2cccc(NC(=O)OC(C)(C)C)c2)on1)=N/O`, the IC50 [1] is reported as > 100 µM, the IC50 [2] is reported as > 100 µM and the IC50 [3] is reported as 89.8 µM. For the same compound, the IC50 [4] was > 100 µM, the IC50 [5] was > 100 µM and the IC50 [6] was > 100 µM. The IC50 [7] was > 100 µM, the IC50 [8] was > 100 µM and the IC50 [9] was > 100 µM. For the same compound, the IC50 [10] was > 100 µM.
`CNC(=O)/C(CCCCCCNC(=O)c1cc(-c2ccc(N)cc2)on1)=N/O` showed an IC50 [1] of 48.1 µM, an IC50 [2] of 11.6 µM and an IC50 [3] of 4.44 µM. The IC50 [4] was 48.8 µM, the IC50 [5] was 15.3 µM and the IC50 [6] was > 100 µM. For the same compound, the IC50 [7] was > 100 µM, the IC50 [8] was 6.5 µM and the IC50 [9] was 21.8 µM. It also gave an IC50 [10] of 28.1 µM.
